Data taken from US10077455B2, “3HP tolerance” (TECHNICAL UNIVERSITY OF DENMARK, priority 2013, dated 2018).

Key:
[1] = tested on: E. coli strains W3110, CROOKS, W, BL21 (DE3), MG1655; test: Effect of GSH addition on growth of E. coli strains in M9 with 20 g/L 3HP; format: cell-based; conditions: for effect of GSH addition on viability: M9 minimal medium with 20 g/L 3HP, pH 7.0, 37° C.
Protocol: For E. coli, the effect of GSH addition on the growth of E. coli in the presence of 20 g/L 3HP was investigated. Five platform E. coli wild-type strains e.g. W3110, CROOKS, W, BL21 (DE3) and MG1655 were selected for 3HP tolerance experiment. Single colony from each strain was inoculated into 3 mL M9 medium and incubated at 250 rpm, 37° C., overnight. Two μL of the overnight cultures were used to inoculate 150 μL M9 medium, M9 with 20 g/L 3HP, and M9 with 20 g/L 3HP and 5 mM GSH in 96-well flat bottom plate. The pH of all E. coli tested media was at pH 7.0.
The composition of M9 medium was as follows: 2.0 g/L glucose, 6.8 g/L Na HPO4, 3.0 g/L KH2PO4, 0.5 g/L NaCl, 1.0 g/L NH4Cl, 0.24 g/L MgSO4, 0.011 g/L CaCl2, 0.5 mL/L trace elements solution, and 1.0 mL/L Wolfe's Vitamin solution. The trace elements solution included 1.0 g/L FeCl3.6H2O, 0.18 g/L ZnSo4.7H2O, 0.12 g/L CuCl2.2H2O, 0.12 g/L MnSO4.H2O, and 0.18 g/L CoCl2.6H2O. The Wolfe's vitamin solution included 10 mg/L pyridoxine hydrochloride, 5.0 mg/L thiamine HCl, 5.0 mg/L riboflavin, 5.0 mg/L nicotinic acid, 5.0 mg/L calcium-(+) phantothenate, 5.0 mg/L para-amino benzoic acid, 5.0 mg/L thiotic acid, 2.0 mg/L d-biotin, 2.0 mg/L folic acid, and 0.1 mg/L vitamin B12. The trace elements and vitamin solutions were sterile-filtered and the solution was stored at 4° C. The M9 salt solution was prepared as a 10× concentrate solution and sterilized by autoclaving. 20% Glucose solution, 1M MgSO4, and 1M CaCl2 stock solutions were autoclaved separately.

Rhodotorula minuta = test: Effect of GSH addition on growth of yeast strains with 50 g/L 3HP; format: cell-based
Protocol: (§2) The yeast strains were grown in 3 mL Delft medium (pH 6.0) at 250 rpm, 25° C., overnight. Three μL of the overnight cultures were used to inoculate 100 μL Delft medium (pH 6.0) with or without 50 g/[MUT] in 96-well flat bottom plate. The 96-well plate was incubated with shaking in the SynergyTM MX microplate reader (BioTek) at 25° C. and the absorbance was measured at 600 nm wavelength every 15 min for 72 hours. Experiments were done in triplicates, and the specific growth rate (h^-1) was calculated. The effect of GSH addition was performed by adding 5 mM GSH into the cultivation medium containing 50 g/[MUT]. The growth of each strain was determined as mentioned above.

S. pombe = test: as above; format: cell-based, Schizosaccharomyces pombe
Protocol: as §2

T. delbrueckii = test: as above; format: cell-based, Torulaspora delbrueckii
Protocol: as §2

Y. lipolytica = test: as above; format: cell-based, Yarrowia lipolytica
Protocol: as §2

C. jadinii = test: as above; format: cell-based, Cyberlindnera jadinii
Protocol: as §2

[2] = tested on: S. cerevisiae CEN.PK 113-7D strain (WT); test: Toxicity of 3HP on growth of S. cerevisiae in Delft minimal medium; format: cell-based, Saccharomyces cerevisiae; conditions: Delft buffered medium pH 3.5, 30° C., 42 hours
Protocol: The toxicity of 3HP on growth of S. cerevisiae CEN.PK 113-7D strain (WT) was determined by evaluating the ability of the WT strain to grow on a chemically defined minimal medium (Delft) containing varying concentrations of 3HP (0-100 g/L). The composition of Delft medium was as follows: 20.0 g/L glucose, 5.0 g/L (NH4)2SO4, 3.0 g/L KH2PO4, 0.5 g/L MgSO4.7H2O, 1.0 mL/L trace metal solution, 0.05 g/L antifoam A (10794, Sigma-Aldrich), and 1.0 mL/L vitamin solution. The trace element solution included 15 g/L EDTA, 0.45 g/L CaCl2.2H2O, 0.45 g/L ZnSO4.7H2O, 0.3 g/L FeSO4.7H2O, 100 mg/L […], 1 g/L MnCl2.2H2O, 0.3 g/L CoCl2.6H2O, 0.3 g/L CuSO4.5H2O, 0.4 g/L NaMoO4.2H2O. The pH of the trace metal solution was adjusted to 4.0 with 2 M NaOH and heat sterilized. […]
A single colony from YPD plate (10 g/L yeast extract, 20 g/L peptone, 20 g/L glucose and 20 g/L agar) was inoculated in a shake flask with 20 mL YPD broth and grown at 30° C., with shaking at 200 rpm, overnight. The absorbance (OD600) of the overnight culture was measured at 600 nm wave length using NanoPhotometer™ UV/Vis (Implen) and the culture was diluted with YPD medium to obtain inoculum with the OD600 around 0.8. […] Experiments were done in duplicates, and the specific growth rate (h^−1) was calculated at various concentrations of 3HP.

K. marxianus = test: Effect of GSH addition on growth of yeast strains with 50 g/L 3HP; format: cell-based, Kluyveromyces marxianus
Protocol: as §2

[3] = tested on: S. cerevisiae strains ST609, ST610, ST611; test: 3HP tolerance of SFA1 allele replacement strains; format: cell-based, Saccharomyces cerevisiae; conditions: Delft buffered pH 3.5
Protocol: For testing 3HP tolerance phenotype, two single colonies from each strain: ST609 (SFA1-wt), ST610 (SFA1^G827C) and ST611 (SFA1^G849A) were investigated for the ability to grow on media containing 3HP. […] The plate was incubated at 30° C. with 250 rpm agitation at 5 cm orbit cast overnight. […] Experiments were done in duplicates.

[4] = tested on: S. cerevisiae WT, SFA1-alleles and sfa1Δ strains
Protocol: The role of GSH in 3HP detoxification was investigated. The WT, SFA1-allles, and sfa1Δ strains were grown in the minimal medium with or without 50 g/L 3HP and supplemented with various concentration of external GSH (0-30 mM) and tested for 3HP tolerance.
For testing 3HP tolerance phenotype, the pre-cultures were prepared by inoculation of a single colony in 1 mL Delft buffered (pH 3.5) media containing 10 g/L 3HP. The cultures were incubated at 30° C. with 250 rpm overnight. Five μL of the overnight cultures were used to inoculate 100 μL Delft buffered (pH 3.5) with or without 50 g/L 3HP and various concentration of GSH (0, 1, 2.5, 5, 10, and 20 mM) in 96-well flat bottom plate. The 96-well plate was incubated at 30° C. with shaking in the Synergy™ MX microplate reader (BioTek) and the absorbance was measured at 600 nm wavelength every 15 min for 42 hours. Experiments were done in triplicates.

K. lactis = conditions: 5 mM GSH, 50 g/L 3HP, Delft medium pH 6.0, 25° C.
Protocol: (§1) The yeast strains were grown in 3 mL Delft medium (pH 6.0) at 250 rpm, 25° C., overnight. Three μL of the overnight cultures were used to inoculate 100 μL Delft medium (pH 6.0) with or without 50 g/[…] in 96-well flat bottom plate. The 96-well plate was incubated with shaking in the SynergyTM MX microplate reader (BioTek) at 25° C. and the absorbance was measured at 600 nm wavelength every 15 min for 72 hours. Experiments were done in triplicates, and the specific growth rate (h^-1) was calculated. The effect of GSH addition was performed by adding 5 mM GSH into the cultivation medium containing 50 g/[…]. The growth of each strain was determined as mentioned above.

S. kluyveri = conditions: 5 mM GSH, 50 g/L 3HP, Delft medium pH 6.0, 25° C.
Protocol: as §1

S. cerevisiae = conditions: 5 mM GSH, 50 g/L 3HP, Delft medium pH 6.0, 25° C.
Protocol: as §1

haploid wild-type cells = conditions: cited from earlier work
[5] = 5 mM GSH, 50 g/L 3HP, Delft medium pH 6.0

Which “decrease in the specific growth rate compared to the cells grown in M9 medium” value ([1]; strain MG1655, M9 medium containing 20 g/L 3HP) does the source give for `O=C(O)CCO` [3HP, 3-hydroxypropionic acid] here?
The value was 2.2 fold.

What about the “3HP concentration tolerated (with decreased specific growth rate)” value (Rhodotorula minuta; Delft medium pH 6.0, 25° C.) of the same compound?
The value was “more than 50 g/L”.

What about the “3HP concentration tolerated (with decreased specific growth rate)” value (S. pombe; Delft medium pH 6.0, 25° C.) of the same compound?
Its value is “more than 50 g/L”.

And the “3HP concentration tolerated (with decreased specific growth rate)” value (T. delbrueckii; Delft medium pH 6.0, 25° C.)?
The value was “more than 50 g/L”.

What about the “3HP concentration tolerated (with decreased specific growth rate)” value (Y. lipolytica; Delft medium pH 6.0, 25° C.) of the same compound?
The value was “more than 50 g/L”.

What about the “3HP concentration tolerated (with decreased specific growth rate)” value (C. jadinii; Delft medium pH 6.0, 25° C.) of the same compound?
Its value is “more than 50 g/L”.

And the “concentration of 3-HP at which the wild type yeast is unable to grow at all” value [2]?
Its value is 75 g/L.

What about the “concentration of 3-HP producing a substantial level of inhibition of growth” value [2] of the same compound?
Its value is “above 10 g/L”.

And the “3HP concentration tolerated (with decreased specific growth rate)” value (K. marxianus; Delft medium pH 6.0, 25° C.)?
Its value is “more than 50 g/L”.

What about the “3HP concentration in minimum media at which the strain could not grow” value ([3]; ST609 (SFA1-wt allele without over expression)) of the same compound?
Its value is “above 40 g/L”.

What about the “3HP concentration in minimum media at which the strain could grow” value ([3]; ST610 (SFA1^G827C)) of the same compound?
The value was “above 40 g/L”.

What about the “3HP concentration in minimum media at which the strain could grow” value ([3]; ST611 (SFA1^G849A)) of the same compound?
Its value is “above 40 g/L”.

What does the source list for `N[C@@H](CCC(=O)N[C@@H](CS)C(=O)NCC(=O)O)C(=O)O` [GSH, glutathione]?
effect of GSH addition on viability ([1]; strain BL21, 5 mM GSH): restored the viability; effect of GSH addition on viability ([1]; strain CROOKS, 5 mM GSH): restored the viability; effect of GSH addition on specific growth rate ([1]; strain MG1655, 5 mM GSH, medium containing 20 g/L 3HP): improved; effect of GSH addition on viability ([1]; strain W3110, 5 mM GSH): restored the viability; effect of GSH addition on viability ([1]; strain W, 5 mM GSH): restored the viability; GSH concentration that restored growth in the presence of 50 g/L 3HP ([4]; WT S. cerevisiae, 50 g/L 3HP, Delft buffered pH 3.5): ≥ 2.5 mM; effect of GSH on growth ([4]; all strains, minimal medium without 50 g/L 3HP): no significant effect; effect of GSH addition on growth ([4]; sfa1Δ strain, 50 g/L 3HP): could not be restored; effect of GSH addition on growth rate ([4]; strain carrying the SFA1 alleles, 50 g/L 3HP): improved the growth rate; effect of GSH addition on specific growth rate (Rhodotorula minuta; [5]): improved; effect of GSH addition on specific growth rate (S. pombe; [5]): improved; effect of GSH addition on specific growth rate (T. delbrueckii; [5]): improved; effect of GSH addition on specific growth rate (Y. lipolytica; [5]): improved; effect of GSH addition on viability (K. lactis): restored the viability; effect of GSH addition on viability (S. kluyveri): restored the viability; effect of GSH addition on viability (S. cerevisiae): restored the viability; effect of GSH addition on specific growth rate (C. jadinii; [5]): improved; effect of GSH addition on specific growth rate (K. marxianus; [5]): improved

Which “concentration that is cytostatic or cytotoxic” value (haploid wild-type cells) does the source give for `C=O` [formaldehyde] here?
The value was at least 1000 µM.
